pKd: −log10 of the molar value. Like-named read-outs stand apart in the source and are kept apart here.
Columns and labels:
Tyk2 kinase domain (DH1) = Tyk2 kinase domain (DH1) (Homo sapiens (Human), UniProt P29597); test: Tyk2 Radioactive Kinase Assay; format: biochemical; conditions: read-out: Tyk2 JH1% Inhibition @ 10 μM
Protocol: (§1) The Tyk2 and JAK2 radioactive kinase assay measures the percent inhibition at the Tyk2 kinase domain (DH1) and the percent inhibition at the JAK2 kinase domain (JH1). Results of the assay are expressed as percent inhibition at 10 μM.

JAK2 kinase domain (JH1) = JAK2 kinase domain (JH1) (Homo sapiens (Human), UniProt O60674); test: JAK2 Radioactive Kinase Assay; format: biochemical; conditions: read-out: JAK2 JH1% Inhibition @ 10 μM
Chain of JAK2 kinase domain (JH1) (O60674 849-1124): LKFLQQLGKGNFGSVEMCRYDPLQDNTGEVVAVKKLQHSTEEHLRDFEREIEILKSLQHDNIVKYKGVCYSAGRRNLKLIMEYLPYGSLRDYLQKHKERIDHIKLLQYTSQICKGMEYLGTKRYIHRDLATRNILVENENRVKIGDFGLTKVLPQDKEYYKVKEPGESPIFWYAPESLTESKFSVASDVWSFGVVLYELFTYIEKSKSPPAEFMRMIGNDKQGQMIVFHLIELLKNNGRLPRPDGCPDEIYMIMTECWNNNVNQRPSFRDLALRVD
Protocol: as §1

[1] = target: human TYK2 (JH2domain-pseudokinase) (Homo sapiens (Human), UniProt P29597); test: TYK2 JH2 Domain Binding Assay (KINOMEscan)
Chain of human TYK2 (JH2domain-pseudokinase) (P29597 556-888): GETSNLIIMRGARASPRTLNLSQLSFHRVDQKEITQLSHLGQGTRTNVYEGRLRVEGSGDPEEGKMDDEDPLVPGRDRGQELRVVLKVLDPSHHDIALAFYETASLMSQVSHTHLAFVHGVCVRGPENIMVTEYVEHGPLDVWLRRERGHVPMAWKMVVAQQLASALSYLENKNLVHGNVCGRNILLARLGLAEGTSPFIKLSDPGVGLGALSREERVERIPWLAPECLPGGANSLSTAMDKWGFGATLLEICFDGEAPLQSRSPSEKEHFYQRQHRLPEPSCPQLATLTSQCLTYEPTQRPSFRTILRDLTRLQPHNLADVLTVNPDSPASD
In short: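 Displacement of a DNA-tagged TYK2 JH2 fusion (human, aa G556–D888, HEK293 extract, <0.1 nM) from ligand-coated beads over 1 h at RT; binding buffer PBS/0.05% Tween 20/10 mM DTT/0.1% BSA.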

Chain of Tyk2 kinase domain (DH1) (P29597 897-1176): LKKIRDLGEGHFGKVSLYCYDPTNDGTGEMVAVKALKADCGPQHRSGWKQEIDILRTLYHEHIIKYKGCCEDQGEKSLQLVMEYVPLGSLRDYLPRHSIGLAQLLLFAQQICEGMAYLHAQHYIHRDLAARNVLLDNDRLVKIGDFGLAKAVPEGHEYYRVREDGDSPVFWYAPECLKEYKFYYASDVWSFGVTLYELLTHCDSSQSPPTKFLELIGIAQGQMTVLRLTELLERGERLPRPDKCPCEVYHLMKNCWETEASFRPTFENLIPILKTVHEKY

SMILES	inhibition at 10 µM (Tyk2 kinase domain (DH1); 10 μM compound, 10 μM ATP) [%]	inhibition at 10 µM (JAK2 kinase domain (JH1); 10 μM compound, 10 μM ATP) [%]	pKd [1]	inhibition at 10 µM (Tyk2 kinase domain (DH1); compound at 10 μM, ATP 10 μM) [%]	inhibition at 10 µM (JAK2 kinase domain (JH1); compound at 10 μM, ATP 10 μM) [%]
CNc1cc(Nc2cccn([C@H]3C[C@@H]3F)c2=O)nc2c(C(=O)N[C@H]3CC[C@H]3O)cnn12 (mixture of isomers) [I-1090, 5-((1-((1S,2S)-2-fluorocyclopropyl)-2-oxo-1,2-dihydropyridin-3-yl)amino)-N-(2-hydroxycyclobutyl)-7-(methylamino)pyrazolo[1,5-a]pyrimidine-3-carboxamide]	< 50	< 50	> 9.70	–	–
CNc1cc(Nc2cccn([C@H]3CCC[C@@H](OC)C3)c2=O)nc2c(C(=O)NCC3(CO)CC3)cnn12 (racemic) [I-862]	< 50	< 50	9.00 to 9.70	–	–
Cc1cc(Nc2cc(N)n3ncc(C(N)=O)c3n2)cc(N2CCCC(O)C2)n1 (stereo in doubt) [I-62, (S)-7-amino-5-((2-(3-hydroxypiperidin-1-yl)-6-methylpyridin-4-yl)amino)pyrazolo[1,5-a]pyrimidine-3-carboxamide]	–	–	< 8.00	< 50	< 50
Cc1c(Nc2cccnc2OC(C)C)nc2c(C(=O)N[C@@H]3C[C@@H]3F)cnn2c1N (stereo in doubt) [I-206, 7-amino-N-((1R,2S)-2-fluorocyclopropyl)-5-((2-isopropoxypyridin-3-yl)amino)-6-methylpyrazolo[1,5-a]pyrimidine-3-carboxamide]	–	–	8.00 to 9.00	< 50	< 50
CNc1cc(-c2cn(C(C)C)c3ncc(Cl)cc23)nc2c(C(=O)N[C@@H]3C[C@@H]3F)cnn12 (stereo in doubt) [I-254, 5-(5-chloro-1-isopropyl-1H-pyrrolo[2,3-b]pyridin-3-yl)-N-((1R,2S)-2-fluorocyclopropyl)-7-(methylamino)pyrazolo[1,5-a]pyrimidine-3-carboxamide]	–	–	9.00 to 9.70	< 50	< 50
COc1ncccc1Nc1cc(NCCN2CCOCC2)n2ncc(C(=O)N[C@@H]3C[C@@H]3F)c2n1 (stereo in doubt) [I-388, N-((1R,2S)-2-fluorocyclopropyl)-5-((2-methoxypyridin-3-yl)amino)-7-((2-morpholinoethyl)amino)pyrazolo[1,5-a]pyrimidine-3-carboxamide]	–	–	9.00 to 9.70	< 50	< 50
[2H]C([2H])([2H])Oc1ncccc1Nc1cc(NC)n2ncc(C(=O)N[C@@H]3CC[C@@H]3O)c2n1 (stereo in doubt) [I-400, N-((1R,2S)-2-hydroxycyclobutyl)-5-((2-(methoxy-d3)pyridin-3-yl)amino)-7-(methylamino) pyrazolo[1,5-a]pyrimidine-3-carboxamide]	–	–	9.00 to 9.70	< 50	< 50
CNc1cc(Nc2cccnc2OC2CC2)nc2c(C(=O)N[C@@H]3CCC[C@H]3O)cnn12 (stereo in doubt) [I-424, 5-((2-cyclopropoxypyridin-3-yl)amino)-N-(2-hydroxycyclopentyl)-7-(methylamino)pyrazolo[1,5-a]pyrimidine-3-carboxamide]	–	–	> 9.70	< 50	< 50
CNc1cc(-c2nn(C3CCOCC3)c3ncccc23)nc2c(C(=O)N[C@@H]3C[C@@H]3F)cnn12 (stereo in doubt) [I-450, N-((1R,2S)-2-fluorocyclopropyl)-7-(methylamino)-5-(1-(tetrahydro-2H-pyran-4-yl)-1H-pyrazolo[3,4-b]pyridin-3-yl)pyrazolo[1,5-a]pyrimidine-3-carboxamide]	–	–	9.00 to 9.70	< 50	< 50
CNc1cc(Nc2cccnc2OC)nc2c(C(=O)N[C@@H]3CCC[C@@H](O)C3)cnn12 (stereo in doubt) [I-459, N-(3-hydroxycyclohexyl)-5-((2-methoxypyridin-3-yl)amino)-7-(methylamino)pyrazolo[1,5-a]pyrimidine-3-carboxamide]	–	–	> 9.70	< 50	< 50
CNc1cc(Nc2cccnc2OC2CC2)nc2c(C(=O)N[C@H]3CC[C@H](O)C3)cnn12 (stereo in doubt) [I-461, 5-((2-cyclopropoxypyridin-3-yl)amino)-N-(3-hydroxycyclopentyl)-7-(methylamino)pyrazolo[1,5-a]pyrimidine-3-carboxamide]	–	–	> 9.70	< 50	< 50
CNc1cc(Nc2cccc(C3CCCCO3)n2)nc2c(C(=O)NC3CC3)cnn12 (stereo in doubt) [I-463, (R)—N-cyclopropyl-7-(methylamino)-5-((6-(tetrahydro-2H-pyran-2-yl)pyridin-2-yl)amino) pyrazolo[1,5-a]pyrimidine-3-carboxamide]	–	–	9.00 to 9.70	< 50	50 to 70
CNc1cc(Nc2cccc(C3CCCCO3)n2)nc2c(C(=O)NC3CC3)cnn12 (stereo in doubt) [I-464, (S)—N-cyclopropyl-7-(methylamino)-5-((6-(tetrahydro-2H-pyran-2-yl)pyridin-2-yl)amino) pyrazolo[1,5-a]pyrimidine-3-carboxamide]	–	–	9.00 to 9.70	< 50	< 50
CNc1cc(Nc2cccn(CCOC3CC3)c2=O)nc2c(C(=O)NC3CC[C@H]3O)cnn12 (stereo in doubt) [I-515, 5-((1-(2-cyclopropoxyethyl)-2-oxo-1,2-dihydropyridin-3-yl)amino)-N-((1R,2R)-2-hydroxycyclobutyl)-7-(methylamino)pyrazolo[1,5-a]pyrimidine-3-carboxamide]	–	–	9.00 to 9.70	< 50	< 50
CNc1cc(-c2cn(C(C)C)c3ncccc23)nc2c(C(=O)N[C@@H]3C[C@H]3O)cnn12 (stereo in doubt) [I-653, N-((1R,2R)-2-hydroxycyclopropyl)-5-(1-isopropyl-1H-pyrrolo[2,3-b]pyridin-3-yl)-7-(methylamino)pyrazolo[1,5-a]pyrimidine-3-carboxamide]	–	–	> 9.70	< 50	< 50
CNc1cc(Nc2cccn([C@H]3CCCOC3)c2=O)nc2c(C(=O)N[C@H]3CC[C@H](O)C3)cnn12 (stereo in doubt) [I-701, N-(3-hydroxycyclopentyl)-7-(methylamino)-5-((2-oxo-1-((R)-tetrahydro 2H-pyran-3-yl)-1,2-dihydropyridin-3-yl)amino)pyrazolo[1,5-a]pyrimidine-3-carboxamide]	–	–	9.00 to 9.70	< 50	< 50
CNc1cc(Nc2cccn([C@@H]3CCCOC3)c2=O)nc2c(C(=O)N[C@H]3CC[C@H](O)C3)cnn12 (stereo in doubt) [I-702, N-(3-hydroxycyclopentyl)-7-(methylamino)-5-((2-oxo-1-((S)-tetrahydro-2H-pyran-3-yl)-1,2-dihydropyridin-3-yl)amino)pyrazolo[1,5-a]pyrimidine-3-carboxamide]	–	–	9.00 to 9.70	< 50	< 50
CNc1cc(Nc2cccn([C@H]3CCCOC3)c2=O)nc2c(C(=O)N[C@H]3CCC[C@H](O)C3)cnn12 (stereo in doubt) [I-704, N-(3-hydroxycyclohexyl)-7-(methylamino)-5-((2-oxo-1-((R)-tetrahydro-2H-pyran-3-yl)-1,2-dihydropyridin-3-yl)amino)pyrazolo[1,5-a]pyrimidine-3-carboxamide]	–	–	9.00 to 9.70	< 50	< 50
CNc1cc(-c2cn(C(C)C)c3ncccc23)nc2c(C(=O)N[C@H]3C[C@@H]3O)cnn12 (stereo in doubt) [I-733, N-((1 S,2S)-2-hydroxycyclopropyl)-5-(1-isopropyl-1H-pyrrolo[2,3-b]pyridin-3-yl)-7-(methylamino)pyrazolo[1,5-a]pyrimidine-3-carboxamide]	–	–	> 9.70	< 50	< 50
CNc1cc(-c2cn(C(C)C)c3ncccc23)nc2c(C(=O)N[C@H]3COC[C@H]3O)cnn12 (stereo in doubt) [I-764, N-(4-hydroxytetrahydrofuran-3-yl)-5-(1-isopropyl-1H-pyrrolo[2,3-b]pyridin-3-yl)-7-(methylamino)pyrazolo[1,5-a]pyrimidine-3-carboxamide]	–	–	> 9.70	< 50	< 50
CNc1cc(-c2cn(CCN3CCOCC3)c3ncccc23)nc2c(C(=O)N[C@H]3COC[C@H]3O)cnn12 (stereo in doubt) [I-791, N-(4-hydroxytetrahydrofuran-3-yl)-7-(methylamino)-5-(1-(2-morpholinoethyl)-1H-pyrrolo[2,3-b]pyridin-3-yl)pyrazolo[1,5-a]pyrimidine-3-carboxamide]	–	–	9.00 to 9.70	< 50	< 50
CNc1cc(-c2cn(CCN3CCN(C)CC3)c3ncccc23)nc2c(C(=O)N[C@H]3CC[C@H]3O)cnn12 (stereo in doubt) [I-851, N-(2-hydroxycyclobutyl)-7-(methylamino)-5-(1-(2-(4-methylpiperazin-1-yl)ethyl)-1H-pyrrolo[2,3-b]pyridin-3-yl)pyrazolo[1,5-a]pyrimidine-3-carboxamide]	< 50	< 50	> 9.70	–	–

Source: patent publication US10508120B2, “TYK2 inhibitors and uses thereof” (Nimbus Lakshmi, Inc., priority 2017, dated 2019)
